# Where a SMILES comes first, the peptide text is derived from it. [ ]: non-standard residue; d: D form.
# Legend:
# human Müller cells = type: cell-based
# Excerpt: Peptide consisted of the TRAF2,3 binding site of CD40 that was made cell permeable by linking them to the TAT47-57 cell penetrating peptide. Peptides were synthesized using D-amino acids following reverse amino acid sequence (ri format). The sequences for the CD40-TRAF2,3 blocking peptide was —NH2-rrrqrrkkrgy ghlteqvhaatn-OH (SEQ ID NO: 49). The TAT47-57 sequence is underlined. The peptide contains a proline (p) to histidine (h) substitution (shown in italics) that enhances affinity to TRAF2. Control (scrambled) peptide consisted of NH2-rrrqrrkkrgy ntqalahtgevh-OH (SEQ ID NO: 50). The blocking peptide was also synthesized with Alexa Fluor 488 conjugated via maleimide coupling to an additional Cys in the N terminus. Peptides were manufactured by Biopeptide Co. (San Diego, CA) and were low in endotoxin and >98% pure by HPLC. Peptides were used at 1 μM in vitro experiments and 1 μg for in vivo studies unless otherwise stated. Peptides were not toxic to human Müller and retinal endothelial cells as assessed by alamarBlue cell viability assay (Invitrogen Corporation).
# Primary human retinal endothelial cells were obtained as described (9) and cultured in complete medium supplemented with endothelial cell growth supplement from bovine pituitary (15 μg/ml; Sigma Chemical, St Louis, MO) and insulin/transferrin/selenium (Sigma Chemical). Cell identity was confirmed by incorporation of acetylated low-density lipoprotein (>90%). Endothelial cells were used between passages 3 to 6. The human Müller cell line MIO M1 (gift from Dr. Gloria Limb; University College London, UK; >95% vimentin^+, CRALBP^+ and GFAP^−) was also used. Endothelial cells were incubated with multimeric human CD154 to induce CD40 stimulation (obtained from Dr. Richard Kornbluth, Multimeric Biotherapeutics Inc., La Jolla, CA) or with a non-functional CD154 mutant (T147N) as control.
# Peptides were tested as described using the mouse endothelial cells mHEVc that expresses a chimera of the extracellular domain of human CD40 and intracytoplasmic domain of mouse CD40 (hmCD40) with either a mutation that prevents recruitment of TRAF2,3 (hmCD40 ΔT2,3) or TRAF6 (hmCD40 ΔT6). These cells were transfected with pGL4.32luc2P/NF-κB-RE/Hygro vector (Promega Corporation, Madison, WI) encoding an NF-κB response element that drives the luciferase reporter gene luc2P (Photinus pyralis). Cells were pre-incubated with peptides for 3 hr. followed by stimulation with human CD154. Luciferase activity was assessed using a Steady-Glo luciferase assay system (Promega Corporation) and a luminometer. The effects of peptides on cell viability were examined using alamarBlue cell viability assay.
# retinas subjected to I/R = experiment: Model of retinal ischemia/reperfusion (I/R), intravitreal peptide; type: in vivo, B6 mice
# Experimental: FIGS. 20(A-C) illustrate images and graphs showing ri CD40-TRAF2,3 blocking peptide protects against loss of ganglion cells and leukocyte infiltration in retinas subjected to I/R. One eye from each B6 and CD40^−/− mouse was subjected to I/R. Contralateral non-ischemic eye was used as control. Eyes subjected to I/R in B6 mice were treated intravitreously with or without ri control peptide, ri CD40-TRAF2,3 blocking peptide (both 1 μg) 30 min prior to increase in IOP. Eyes were collected 2 d after I/R. A marked decrease in the number of ganglion cells is observed in ischemic eyes from B6 treated with ri control peptide or vehicle (original magnification ×400). […] Arrowhead plus asterix identifies a PMN magnified in the inset (original magnification ×600). Scale bar, 50 μm. Number of ganglion cells per mm. Number of infiltrating leukocytes in the inner retina and vitreous per section. GCL=Ganglion cell layer; IPL=Inner plexiform layer; INL=Inner nuclear layer. OPL=Outer plexiform layer; ONL=Outer nuclear layer. Data shown represent Mean±SEM (9 mice per group). *P<0.05; **P<0.01; […].
# FIG. 21 illustrates graphs showing ri CD40-TRAF2,3 blocking peptide impairs upregulation of NOS2 and COX-2 in retinas subjected to I/R. One eye of each mouse was treated as above and subjected to I/R. Eyes were collected after 2 d. mRNA levels of NOS2 and COX-2 were assessed by quantitative real time PCR. One non-ischemic eye from a B6 mouse was given an arbitrary value of 1 and data are expressed as fold-increase compared to this animal. Data shown represent Mean±SEM (7-9 mice per group). ***P<0.001.
# FIGS. 22(A-B) illustrate graphs and images showing ri CD40-TRAF2,3 blocking peptide impairs upregulation of ICAM-1 and KC/CXCL1 in retinal endothelial cells from retinas subjected to I/R. One eye of each mouse was subjected to I/R. Eyes were collected after 2 d. mRNA levels of ICAM-1 and KC/CXCL1 were assessed by quantitative real time PCR. One non-ischemic eye from a B6 mouse was given an arbitrary value of 1 and data are expressed as fold-increase compared to this animal. Data shown represent Mean±SEM (7-9 mice per group). ***P<0.001. Retinal sections were incubated with Tomato Lectin (labels endothelial cells) plus either anti-ICAM-1 or anti-KC/CXCL1 Ab. Original magnification ×600. GCL=Ganglion cell layer; IPL=Inner plexiform layer; INL=Inner nuclear layer. Scale bar, 10 μm. 6 mice/group.
# FIG. 23 illustrates images showing ri CD40-TRAF2,3 blocking peptide impairs NOS2 and KC/CXCL1 upregulation in Müller cells from retinas subjected to I/R. Eyes from B6 mice were treated with control peptide or CD40-TRAF2,3 blocking peptide, subjected to I/R and collected after 2 d. Retinal sections were incubated with anti-Vimentin Ab (labels Müller cells) plus either anti-NOS2 or anti-KC/CXCL1 Ab. Protein expression at the level of Müller cells stalks. […]. Original magnification ×600. Scale bar, 10 μm. 6 mice/group.
# FIGS. 24(A-D) illustrate images and graphs showing ri CD40-TRAF2,3 blocking peptide protects against loss of ganglion neurons and inflammation when administered after retinal I/R. One eye from each B6 mouse was subjected to I/R. Non-ischemic eyes were used as controls. Eyes that were subjected to I/R received either ri control peptide or ri CD40-TRAF2,3 blocking peptide 90 min after increase in IOP. Eyes were collected 2 d after I/R. Administration of the blocking peptide protects against ganglion cell loss and infiltration by leukocytes (arrowhead). Original magnification ×400. Scale bar, 50 μm. Number of ganglion cells per mm. Number of leukocytes in the inner retina and vitreous per section. mRNA levels of ICAM-1, KC/CXCL1, NOS2 and COX-2 were assessed by quantitative real time PCR as above. Data shown represent Mean±SEM (7-9 mice per group). **P<0.01; ***P<0.001. GCL=Ganglion cell layer; IPL=Inner plexiform layer; INL=Inner nuclear layer. […]
# [1] = 1 μg intravitreal prior to I/R, 2 d, real time PCR
# [2] = peptide administered 90 min post-retinal ischemia, 2 d, mRNA
# [3] = prior to I/R, 2 d, immunohistochemistry
smiles,measurement,setting,value
"CC(C)C[C@@H](NC(=O)[C@@H](Cc1c[nH]cn1)NC(=O)CNC(=O)[C@@H](Cc1ccc(O)cc1)NC(=O)CNC(=O)[C@@H](CCCNC(=N)N)NC(=O)[C@@H](CCCCN)NC(=O)[C@@H](CCCCN)NC(=O)[C@@H](CCCNC(=N)N)NC(=O)[C@@H](CCCNC(=N)N)NC(=O)[C@@H](CCC(N)=O)NC(=O)[C@@H](CCCNC(=N)N)NC(=O)[C@@H](CCCNC(=N)N)NC(=O)[C@H](N)CCCNC(=N)N)C(=O)N[C@@H](C(=O)N[C@H](CCC(=O)O)C(=O)N[C@H](CCC(N)=O)C(=O)N[C@@H](C(=O)N[C@H](Cc1c[nH]cn1)C(=O)N[C@H](C)C(=O)N[C@H](C)C(=O)N[C@@H](C(=O)N[C@H](CC(N)=O)C(=O)O)[C@H](C)O)C(C)C)[C@H](C)O [ri CD40-TRAF2,3 blocking peptide, NH2-rrrqrrkkrgy ghlteqvhaatn-OH] (H-[dR][dR][dR][dQ][dR][dR][dK][dK][dR]G[dY]G[dH][dL][dT][dE][dQ][dV][dH][dA][dA][dT][dN]-OH)",toxicity (alamarBlue cell viability assay),human Müller cells,not toxic
same,COX-2 mRNA levels in retina,retinas subjected to I/R; [1],impaired upregulation
same,ICAM-1 mRNA levels in retina,retinas subjected to I/R; [1],significant reduction
same,KC/CXCL1 mRNA levels in retina,retinas subjected to I/R; [1],significant reduction
same,NOS2 mRNA levels in retina,retinas subjected to I/R; [1],impaired upregulation
same,PMN infiltration in the inner retina and vitreous,"retinas subjected to I/R; 1 μg intravitreal prior to I/R, 2 d after I/R",diminished inflammatory infiltrate
same,loss of ganglion cells,"retinas subjected to I/R; 1 μg intravitreal prior to I/R, eyes collected 2 d after I/R",significant attenuation in the loss of ganglion cells
same,leukocyte recruitment,"retinas subjected to I/R; peptide administered 90 min post-retinal ischemia, 2 d",protected against
same,upregulation of COX-2,retinas subjected to I/R; [2],protected against
same,upregulation of ICAM-1,retinas subjected to I/R; [2],protected against
same,upregulation of KC/CXCL1,retinas subjected to I/R; [2],protected against
same,upregulation of NOS2,retinas subjected to I/R; [2],protected against
same,ganglion cell loss,"retinas subjected to I/R; peptide administered 90 min post-retinal ischemia, eyes collected 2 d after I/R",protected against
same,expression of ICAM-1 in retinal endothelial cells,retinas subjected to I/R; [3],decreased expression
same,expression of KC/CXCL1 in Müller cells,retinas subjected to I/R; [3],impaired expression
same,expression of KC/CXCL1 in retinal endothelial cells,retinas subjected to I/R; [3],decreased expression
same,expression of NOS2 in Müller cells,retinas subjected to I/R; [3],impaired expression

# Source: patent US12319726B2, “Method for treating CD40-mediated diseases” (CASE WESTERN RESERVE UNIVERSITY, priority 2008, dated 2025)
